# Experimental data: the supplement of paper PMC10307832
# Assays:
# Assay in all cases: relative viability (nuclei count vs DMSO), 5 days (fraction); higher = more cells survive
# [1] = compound: Cc1cnc(CNC(=O)c2c(=O)c3ccc(N4CCCN(C)CC4)nc3n3c2sc2ccccc23)cn1 [CX-5461] + Cc1cc(Nc2cc(N3CCN(C)CC3)nc(Sc3ccc(NC(=O)C4CC4)cc3)n2)n[nH]1 [Tozasertib] (partner 0.1 µM)
# How it was run: (§1)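 A single step with final 0.05% Triton X-100, 1% formaldehyde and 1 ug/ml Hoechst fixed the cells and stained nuclei 5 days after treatment. Lung cancer cell lines in 1536-well plates had been treated by pin tool the day after seeding with one drug alone or a fixed anchor-drug dose plus five library-drug doses (not always all listed) in √10 steps, and nuclei were counted on 4× images. Relative viability is the ratio of nuclei in treated wells to nuclei in vehicle wells, taken as the median of duplicate plates.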
# [2] = compound: Cc1cnc(CNC(=O)c2c(=O)c3ccc(N4CCCN(C)CC4)nc3n3c2sc2ccccc23)cn1 [CX-5461] + CS(=O)(=O)N1CCN(Cc2cc3nc(-c4cccc5[nH]ncc45)nc(N4CCOCC4)c3s2)CC1 [Pictilisib] (partner 1 µM)
# How it was run: as §1
# [3] = compound: Cc1cnc(CNC(=O)c2c(=O)c3ccc(N4CCCN(C)CC4)nc3n3c2sc2ccccc23)cn1 [CX-5461] + C[C@]1(O)C[C@@H](c2nc(-c3ccc4ccc(-c5ccccc5)nc4c3)c3c(N)nccn32)C1 [Linsitinib] (partner 1 µM)
# How it was run: as §1
# [4] = compound: Cc1cnc(CNC(=O)c2c(=O)c3ccc(N4CCCN(C)CC4)nc3n3c2sc2ccccc23)cn1 [CX-5461] + COc1cccc2cc(-c3nc([C@H]4CC[C@H](C(=O)O)CC4)n4ncnc(N)c34)[nH]c12 [OSI-027] (partner 0.5 µM)
# How it was run: as §1
Cell Line,relative viability ([1]; first compound 0.01 µM),relative viability ([1]; first compound 0.03162 µM),relative viability ([1]; first compound 0.1 µM),relative viability ([1]; first compound 0.3162 µM),relative viability ([1]; first compound 1 µM),relative viability ([2]; first compound 0.01 µM),relative viability ([2]; first compound 0.03162 µM),relative viability ([2]; first compound 0.1 µM),relative viability ([2]; first compound 0.3162 µM),relative viability ([2]; first compound 1 µM),relative viability ([3]; first compound 0.01 µM),relative viability ([3]; first compound 0.03162 µM),relative viability ([3]; first compound 0.1 µM),relative viability ([3]; first compound 0.3162 µM),relative viability ([3]; first compound 1 µM),relative viability ([4]; first compound 0.01 µM),relative viability ([4]; first compound 0.03162 µM),relative viability ([4]; first compound 0.1 µM),relative viability ([4]; first compound 0.3162 µM),relative viability ([4]; first compound 1 µM)
LXF-289,0.2,0.224,0.16,0.179,0.179,0.789,0.922,0.805,0.72,0.435,0.963,1,1.04,0.903,0.949,0.755,0.924,0.892,0.416,0.581
NCI-H23,0.311,0.429,0.334,0.362,0.568,0.449,0.501,0.488,0.292,0.362,0.612,0.554,0.709,0.529,0.451,0.672,0.757,0.546,0.544,0.343
NCI-H322M,0.441,0.508,0.49,0.503,0.443,0.578,0.535,0.575,–,0.464,0.844,0.911,0.944,–,0.9,0.534,0.552,0.578,0.389,0.393
NCI-H358,0.108,0.0952,0.117,0.103,0.0892,0.29,0.323,0.249,0.19,0.316,0.817,0.748,0.345,0.314,0.304,0.621,0.939,0.69,0.592,0.194
NCI-H441,0.515,0.742,0.643,0.678,0.362,0.376,0.515,0.505,0.382,0.339,0.567,0.651,0.487,0.288,0.629,0.696,0.659,0.607,0.534,0.408
NCI-H460,0.523,0.584,0.462,0.227,0.0722,0.462,0.338,0.366,0.108,0.2,1.02,0.713,0.133,0.537,0.0178,0.573,0.541,–,0.684,0.0247
NCI-H520,0.442,0.419,0.438,–,0.425,0.218,0.299,0.285,0.305,0.298,0.877,0.916,0.934,0.889,0.701,0.193,0.247,0.24,0.197,0.266
NCI-H596,0.866,1.04,0.984,0.863,0.796,0.465,0.406,0.372,0.429,0.344,1.11,1.06,1.21,1.15,1.1,0.711,0.737,0.775,0.715,0.591
NCI-H647,0.386,0.335,0.307,0.262,0.186,0.429,0.459,0.426,0.136,0.28,1.15,1.25,1.1,1.25,0.442,0.742,0.565,0.669,0.566,0.467
NCI-H650,0.735,0.815,0.715,0.324,0.54,0.858,1.05,0.889,0.664,0.731,0.955,0.999,0.697,0.571,0.373,0.578,0.558,0.483,0.536,0.352
NCI-H661,0.35,0.347,0.348,0.351,0.338,0.372,0.405,0.377,0.374,0.382,0.593,0.721,0.87,–,0.433,0.654,0.698,0.615,0.834,0.387
NCI-H727,0.529,0.666,0.57,0.633,0.593,0.355,0.492,0.277,0.253,0.614,0.351,0.276,0.321,0.342,0.129,0.59,0.866,0.622,0.58,0.584
NCI-H838,0.249,0.281,0.271,–,0.273,0.457,0.473,0.5,0.474,0.325,1.1,1.05,1.08,0.847,0.859,0.413,0.384,0.404,–,0.272
NCI-H1355,0.579,0.594,0.53,0.323,0.548,0.469,0.433,0.493,0.163,0.407,0.859,0.845,0.893,0.838,0.787,0.438,0.428,0.456,0.267,0.321
NCI-H1395,0.811,0.796,0.757,0.574,0.588,0.568,0.576,0.914,0.447,0.395,1.06,1.15,1.06,0.612,0.583,0.639,0.625,0.63,0.475,0.515
NCI-H1437,0.404,0.459,–,0.367,0.366,0.381,0.471,–,0.408,0.382,1.17,1.11,–,0.991,0.763,0.912,0.869,–,0.841,0.662
NCI-H1651,0.7,0.465,–,0.505,0.106,–,0.414,–,0.489,0.105,–,0.755,–,0.714,0.11,0.61,0.62,–,0.458,0.131
